# Results as given in patent US9624215B2, “Amine derivative or salt thereof” (TOYAMA CHEMICAL CO., LTD., priority 2012, dated 2017).
# Tested on: normal human neonatal foreskin epidermal keratinocytes (NHEK-F)
# Experiment: Cell proliferation inhibition test
# Format: cell-based
# Conditions: Keratinocyte, 72 h, NHEK-F cells, three days incubation, ATPlite or CellTiterGlo, read-out: IC50 (concentration of the compound at which the cell count is reduced by 50%)
# Protocol: 2×10^3 normal human neonatal foreskin epidermal keratinocytes (NHEK-F) (Kurabo, KK-4009) were suspended in 100 μL of Humedia-EG2 (Kurabo, KK-2150S) medium, plated in a 96-well plate and incubated overnight. The test compound was added on the following day and the cells were incubated for further three days. The cell count was determined using ATPlite (PerkinElmer, 6016739) or CellTiterGlo (Promega, G7573).
# The inhibition rate was calculated from the following formula to determine the concentration of the compound at which the cell count is reduced by 50% (IC50). Inhibition rate (%)=100−(cell count in the presence of test compound/cell count in the absence of test compound)×100
row,Structure (SMILES),IC50 [nM]
1,"O=C(O)c1cc(Cl)ccc1Nc1ccc2ccn(Cc3ccccc3)c2c1 [Example 4, 2-((1-benzyl-1H-indol-6-yl)amino)-5-chlorobenzoic acid]",100 to 1000
2,"O=C(O)c1cc(Cl)ccc1Nc1cccc2c1ccn2Cc1ccccc1 [Example 6, 2-((1-benzyl-1H-indol-4-yl)amino)-5-chlorobenzoic acid]",10 to 100
3,"O=C(O)c1cc(Cl)ccc1Nc1ccnc2c1ccn2Cc1ccccc1 [Example 9, 2-((1-benzyl-1H-pyrrolo(2,3-b)pyridin-4-yl)amino)-5-chlorobenzoic acid]",10 to 100
4,"O=C(O)c1cc(Cl)ccc1Nc1ccc2c(ccn2Cc2cccc(OCc3ccccn3)c2)c1 [Example 19, 5-chloro-2-((1-(3-(pyridin-2-ylmethoxy)benzyl)-1H-indol-5-yl)amino)benzoic acid]",≤ 10
5,"O=C(O)c1cc(Cl)ccc1Nc1ccc2c(c1)cc(CO)n2Cc1ccccc1 [Example 25, 2-((1-benzyl-2-(hydroxymethyl)-1H-indol-5-yl)amino)-5-chlorobenzoic acid]",10 to 100
6,"Cn1cc(-c2ccccc2)c2ccc(Nc3ncc(C4CC4)cc3C(=O)O)cc21 [Example 41, 5-cyclopropyl-2-((1-methyl-3-phenyl-1H-indol-6-yl)amino)nicotinic acid]",10 to 100
7,"O=C(O)c1cc(C2CC2)cnc1Nc1ccc2c(-c3ccccc3)c[nH]c2c1 [Example 43, 5-cyclopropyl-2-((3-phenyl-1H-indol-6-yl)amino)nicotinic acid]",10 to 100
8,"O=C(O)c1cc(C2CC2)cnc1Nc1ccc2c(-c3ccccc3)cn(CC3CC3)c2c1 [Example 45, 5-cyclopropyl-2-((1-(cyclopropylmethyl)-3-phenyl-1H-indol-6-yl)amino)nicotinic acid]",10 to 100
9,"O=C(O)c1cc(Cl)ccc1Nc1ccc2c(ccn2-c2ccc(Cl)cc2)c1 [Example 47, 5-chloro-2-((1-(4-chlorophenyl)-1H-indol-5-yl)amino)benzoic acid]",≤ 10
10,"O=C(O)c1cc(Cl)ccc1Nc1ccc2c(ccn2-c2cccnc2)c1 [Example 49, 5-chloro-2-((1-(pyridin-3-yl)-1H-indol-5-yl)amino)benzoic acid]",10 to 100
11,"O=C(O)c1cc(Cl)ccc1Nc1ccc2c(c1)c(C(=O)c1ccccc1)cn2Cc1ccccc1 [Example 86, 2-((3-benzoyl-1-benzyl-1H-indol-5-yl)amino)-5-chlorobenzoic acid]",100 to 1000
12,"O=C(O)c1cc(Cl)ccc1Nc1ccc2c(c1)c(Cc1ccccc1)cn2Cc1ccccc1 [Example 88, 5-chloro-2-((1,3-dibenzyl-1H-indol-5-yl)amino)benzoic acid]",10 to 100
13,"Cc1ccc(-n2ccc3cc(Nc4ccc(Cl)cc4C(=O)O)ccc32)nn1 [Example 100, 5-chloro-2-((1-(6-methylpyridazin-3-yl)-1H-indol-5-yl)amino)benzoic acid]",100 to 1000
14,"CC(C)c1ccc(Nc2ccc3c(ccn3Cc3ccccc3)c2)c(C(=O)O)c1 [Example 114, 2-((1-benzyl-1H-indol-5-yl)amino)-5-isopropylbenzoic acid]",≤ 10
15,"O=C(O)c1cc(C(F)(F)F)cnc1Nc1ccc2c(ccn2Cc2ccccc2)c1 [Example 116, 2-((1-benzyl-1H-indol-5-yl)amino)-5-(trifluoromethyl)nicotinic acid]",≤ 10
16,"CCn1ccc2cc(Nc3ncc(C4CC4)cc3C(=O)O)ccc21 [Example 121, 5-cyclopropyl-2-((1-ethyl-1H-indol-5-yl)amino)nicotinic acid]",100 to 1000
17,"CC(C)n1ccc2cc(Nc3ncc(C4CC4)cc3C(=O)O)ccc21 [Example 123, 5-cyclopropyl-2-((1-isopropyl-1H-indol-5-yl)amino)nicotinic acid]",10 to 100
18,"Cc1cnc(Nc2ccc3c(ccn3Cc3ccccc3)c2)c(C(=O)O)c1 [Example 125, 2-((1-benzyl-1H-indol-5-yl)amino)-5-methylnicotinic acid]",10 to 100
19,"COCCn1ccc2cc(Nc3ncc(C4CC4)cc3C(=O)O)ccc21 [Example 129, 5-cyclopropyl-2-((1-(2-methoxyethyl)-1H-indol-5-yl)amino)nicotinic acid]",100 to 1000
20,"COc1cnc(Nc2ccc3c(ccn3Cc3ccccc3)c2)c(C(=O)O)c1 [Example 132, 2-((1-benzyl-1H-indol-5-yl)amino)-5-methoxynicotinic acid]",10 to 100
21,"O=C(O)c1cc(C2CC2)cnc1Nc1ccc2c(ccn2Cc2cccnc2)c1 [Example 137, 5-cyclopropyl-2-((1-(pyridin-3-ylmethyl)-1H-indol-5-yl)amino)nicotinic acid]",10 to 100
22,"O=C(O)c1cc(C2CC2)cnc1Nc1ccc2c(ccn2CC2CC2)c1 [Example 146, 5-cyclopropyl-2-((1-(cyclopropylmethyl)-1H-indol-5-yl)amino)nicotinic acid]",10 to 100

row,Structure (SMILES),IC50 [nM]
1,"O=C(O)c1cc(C2CC2)cnc1Nc1ccc2c(ccn2Cc2ccncc2)c1 [Example 148, 5-cyclopropyl-2-((1-(pyridin-4-ylmethyl)-1H-indol-5-yl)amino)nicotinic acid]",100 to 1000
2,"O=C(O)c1cc(C2CC2)cnc1Nc1ccc2[nH]cc(-c3ccccc3)c2c1 [Example 156, 5-cyclopropyl-2-((3-phenyl-1H-indol-5-yl)amino)nicotinic acid]",100 to 1000
3,"Cn1c(C(C)(C)C)cc2cc(Nc3ncc(C4CC4)cc3C(=O)O)ccc21 [Example 157, 2-((2-(tert-butyl)-1-methyl-1H-indol-5-yl)amino)-5-cyclopropylnicotinic acid]",100 to 1000
4,"CCn1c(C(C)(C)C)cc2cc(Nc3ncc(C4CC4)cc3C(=O)O)ccc21 [Example 158, 2-((2-(tert-butyl)-1-ethyl-1H-indol-5-yl)amino)-5-cyclopropylnicotinic acid]",10 to 100
5,"CS(=O)(=O)NC(=O)c1cc(C2CC2)cnc1Nc1ccc2c(ccn2-c2ccccc2)c1 [Example 159, 5-cyclopropyl-N-(methylsulfonyl)-2-((1-phenyl-1H-indol-5-yl)amino)nicotinamide]",10 to 100
6,"CCn1c2c(c3cc(Nc4ncc(C5CC5)cc4C(=O)O)ccc31)CCCC2 [Example 166, 5-cyclopropyl-2-((9-ethyl-2,3,4,9-tetrahydro-1H-carbazol-6-yl)amino)nicotinic acid]",100 to 1000
7,"CCn1cc(-c2ccccc2)c2cc(Nc3ncc(C4CC4)cc3C(=O)O)ccc21 [Example 170, 5-cyclopropyl-2-((1-ethyl-3-phenyl-1H-indol-5-yl)amino)nicotinic acid]",10 to 100
8,"CC(C)Cn1c(CO)cc2cc(Nc3ncc(C4CC4)cc3C(=O)O)ccc21 [Example 175, 5-cyclopropyl-2-((2-(hydroxymethyl)-1-isobutyl-1H-indol-5-yl)amino)nicotinic acid]",100 to 1000
9,"O=C(O)c1cc(C2CC2)cnc1Nc1ccc2c(-c3ccccc3)cccc2c1 [Example 177, 5-cyclopropyl-2-((5-phenylnaphthalen-2-yl)amino)nicotinic acid]",≤ 10
10,"O=C(O)c1cc(C2CC2)cnc1Nc1ccc2cccc(-c3ccccc3)c2c1 [Example 179, 5-cyclopropyl-2-((8-phenylnaphthalen-2-yl)amino)nicotinic acid]",≤ 10
11,"O=C(O)c1cc(C2CC2)cnc1Nc1ccc2c(c1)CCCN2c1ccccc1 [Example 181, 5-cyclopropyl-2-((1-phenyl-1,2,3,4-tetrahydroquinolin-6-yl)amino)nicotinic acid]",≤ 10
12,"O=C(O)c1cc(C2CC2)cnc1Nc1ccc2c(c1)CCCN2Cc1ccccc1 [Example 183, 2-((1-benzyl-1,2,3,4-tetrahydroquinolin-6-yl)amino)-5-cyclopropylnicotinic acid]",10 to 100
13,"O=C(O)c1cc(C2CC2)cnc1Nc1cccc2c(-c3ccccc3)nccc12 [Example 185, 5-cyclopropyl-2-((1-phenylisoquinolin-5-yl)amino)nicotinic acid]",≤ 10
14,"O=C(O)c1cc(C2CC2)cnc1Nc1cccc2c(-c3ccccc3)ccnc12 [Example 187, 5-cyclopropyl-2-((4-phenylquinolin-8-yl)amino)nicotinic acid]",≤ 10
15,"Cn1ccc2cc(Nc3ncc(C4CC4)cc3C(=O)O)cc(-c3ccc(-c4ccccc4)cc3)c21 [Example 191, 2-((7-([1,1′-biphenyl]-4-yl)-1-methyl-1H-indol-5-yl)amino)-5-cyclopropylnicotinic acid]",≤ 10
16,"O=C(O)c1cc(C2CC2)ccc1Nc1ccc2c(ccn2C(=O)c2ccc(Cl)cc2)c1 [Example 204, 2-((1-(4-chlorobenzoyl)-1H-indol-5-yl)amino)-5-cyclopropylbenzoic acid]",10 to 100
17,"O=C(O)c1nc(C2CC2)ccc1Nc1ccc2c(ccn2Cc2ccccc2)c1 [Example 210, 3-((1-benzyl-1H-indol-5-yl)amino)-6-cyclopropylpicolinic acid]",10 to 100
18,"O=C(O)c1cc(C2CC2)cnc1Nc1ccc2cc(-c3ccccc3)ccc2c1 [Example 218, 5-cyclopropyl-2-((6-phenylnaphthalen-2-yl)amino)nicotinic acid]",10 to 100
19,"O=C(O)c1cc(C2CC2)cnc1Nc1cc(-c2ccccc2)c2[nH]ccc2c1 [Example 227, 5-cyclopropyl-2-((7-phenyl-1H-indol-5-yl)amino)nicotinic acid]",10 to 100
20,"O=C(O)c1cc(Cl)ncc1Nc1ccc2c(ccn2Cc2ccccc2)c1 [Example 229, 5-((1-benzyl-1H-indol-5-yl)amino)-2-chloroisonicotinic acid]",10 to 100
21,"O=C(O)c1cc(C2CC2)cnc1Nc1ccc2c(ccn2-c2cccc(F)c2)c1 [Example 231, 5-cyclopropyl-2-((1-(3-fluorophenyl)-1H-indol-5-yl)amino)nicotinic acid]",≤ 10
